Target: T1, human F508del CFTR (Homo sapiens, UniProt P13569, DEL508-508)
T1 construct: expressed in transfected cells; host or cells: Fisher Rat Thyroid (FRT) cells
Experiment: CFTR-YFP High Throughput Assay
Assay type: cell-based
Details: FRT cells expressing human F508del CFTR and YFP; for Emax: EMax normalized to the positive control, read-out: % Efficacy
Procedure, shortened: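 Corrector mode: 24-26 h compound exposure (2 nM-40 μM, 37° C) of FRT cells carrying human F508del CFTR and YFP-H148Q/I152L, followed by washing and 60-120 min RT stimulation with 20 μM forskolin and 30 μM P3. CFTR activity is the least-squares-fitted rate of YFP quenching (Ex 500/Em 540 nm) after iodide addition.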

T1 sequence (P13569 with tags, fused parts or gaps DEL508-508): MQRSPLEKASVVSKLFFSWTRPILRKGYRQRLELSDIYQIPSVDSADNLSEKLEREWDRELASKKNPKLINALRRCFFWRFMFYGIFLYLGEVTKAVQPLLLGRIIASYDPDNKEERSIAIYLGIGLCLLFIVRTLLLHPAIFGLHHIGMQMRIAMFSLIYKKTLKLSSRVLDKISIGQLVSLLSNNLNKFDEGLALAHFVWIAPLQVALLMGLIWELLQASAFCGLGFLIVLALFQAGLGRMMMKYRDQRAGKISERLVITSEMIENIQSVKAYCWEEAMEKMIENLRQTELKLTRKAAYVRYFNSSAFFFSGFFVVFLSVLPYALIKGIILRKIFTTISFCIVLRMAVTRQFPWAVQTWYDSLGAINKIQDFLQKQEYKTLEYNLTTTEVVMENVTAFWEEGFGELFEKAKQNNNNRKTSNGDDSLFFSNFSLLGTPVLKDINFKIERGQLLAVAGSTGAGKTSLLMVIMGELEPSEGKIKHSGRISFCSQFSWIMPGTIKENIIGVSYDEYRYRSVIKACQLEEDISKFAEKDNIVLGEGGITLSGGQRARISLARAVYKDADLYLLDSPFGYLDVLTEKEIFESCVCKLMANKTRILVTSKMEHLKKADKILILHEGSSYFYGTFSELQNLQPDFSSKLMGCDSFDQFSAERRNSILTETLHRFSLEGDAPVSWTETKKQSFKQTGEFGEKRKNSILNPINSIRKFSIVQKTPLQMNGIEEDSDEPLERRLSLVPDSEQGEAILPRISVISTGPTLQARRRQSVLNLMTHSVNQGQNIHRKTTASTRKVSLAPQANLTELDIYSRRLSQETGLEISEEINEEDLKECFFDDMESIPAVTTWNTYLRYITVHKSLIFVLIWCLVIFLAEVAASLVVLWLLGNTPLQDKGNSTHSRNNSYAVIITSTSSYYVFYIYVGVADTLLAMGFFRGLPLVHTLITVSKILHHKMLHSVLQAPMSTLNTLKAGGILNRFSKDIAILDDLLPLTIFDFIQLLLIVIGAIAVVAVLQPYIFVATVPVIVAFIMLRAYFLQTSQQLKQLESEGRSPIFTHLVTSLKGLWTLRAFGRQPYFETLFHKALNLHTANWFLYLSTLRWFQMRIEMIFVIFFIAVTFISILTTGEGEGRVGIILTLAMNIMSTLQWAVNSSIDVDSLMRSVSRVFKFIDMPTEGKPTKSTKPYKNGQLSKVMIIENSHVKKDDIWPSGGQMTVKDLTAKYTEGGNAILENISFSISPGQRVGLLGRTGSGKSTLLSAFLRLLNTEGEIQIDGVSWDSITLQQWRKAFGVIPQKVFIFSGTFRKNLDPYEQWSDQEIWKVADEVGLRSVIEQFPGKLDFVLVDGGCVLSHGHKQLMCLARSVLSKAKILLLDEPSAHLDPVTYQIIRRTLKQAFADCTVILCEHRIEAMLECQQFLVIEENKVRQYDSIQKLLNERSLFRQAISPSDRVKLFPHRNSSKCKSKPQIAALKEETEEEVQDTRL

| Emax [%] | EC50 [µM] | Compound |
| --- | --- | --- |
| 30 to 80 | < 10 | CCN(C(=O)c1nn(CC(=O)N2CCOCC2)c(=O)c2c1c1ccccc1n2C)c1ccccc1 [Example 215, N-ethyl-5-methyl-3-(2-morpholino-2-oxoethyl)-4-oxo-N-phenyl-4,5-dihydro-3H-pyridazino[4,5-b]indole-1-carboxamide] |
| 30 to 80 | < 10 | CCN(C(=O)c1nn(CC2CCCO2)c(=O)c2c1c1ccccc1n2C)c1ccccc1 (centres unmarked) [Example 216, N-ethyl-5-methyl-4-oxo-N-phenyl-3-((THF-2-yl)methyl)-4,5-dihydro-3H-pyridazino[4,5-b]indole-1-carboxamide] |
| 10 to 30 | > 20 | CCN(C(=O)c1nn(CC(C)(C)C)c(=O)c2c1c1ccccc1n2C)c1ccccc1 [Example 217, N-ethyl-5-methyl-3-neopentyl-4-oxo-N-phenyl-4,5-dihydro-3H-pyridazino[4,5-b]indole-1-carboxamide] |
| > 80 | < 10 | CCN(C(=O)c1nn(C(C)c2ccccc2)c(=O)c2c1c1c(C)cccc1n2C)c1ccccc1 (centres unmarked) [Example 218, N-ethyl-5,9-dimethyl-4-oxo-N-phenyl-3-(1-phenylethyl)-4,5-dihydro-3H-pyridazino[4,5-b]indole-1-carboxamide] |
| 10 to 30 | – | CCN(C(=O)c1nn(-c2ccc(C)cc2)c(=O)c2c1c1ccccc1n2C1CCC1)c1ccccc1 [Example 219, 5-cyclobutyl-N-ethyl-4-oxo-N-phenyl-3-p-tolyl-4,5-dihydro-3H-pyridazino[4,5-b]indole-1-carboxamide] |
| 30 to 80 | – | CCN(C(=O)c1nn(-c2ccc(C)cc2)c(=O)c2[nH]c3ccccc3c12)c1ccccc1 [Example 220, N-Ethyl-4-oxo-N-phenyl-3-p-tolyl-4,5-dihydro-3H-pyridazino[4,5-b]indole-1-carboxamide] |
| 30 to 80 | – | CCN(C(=O)c1nn(-c2ccc(C)cc2)c(=O)c2[nH]c3ccccc3c12)c1cccc(Cl)c1 [Example 221, N-(3-chlorophenyl)-N-ethyl-4-oxo-3-(p-tolyl)-4,5-dihydro-3H-pyridazino[4,5-b]indole-1-carboxamide] |
| 30 to 80 | > 20 | CCN(C(=O)Cn1ncc2c([nH]c3ccccc32)c1=O)c1ccc2c(c1)OC(F)(F)O2 [Example 222, N-(2,2-difluorobenzo[d][1, 3]dioxol-5-yl)-N-ethyl-2-(4-oxo-4,5-dihydro-3H-pyridazino[4,5-b]indol-3-yl)acetamide] |
| 30 to 80 | – | CCN(C(=O)c1nn(-c2ccc(C)cc2)c(=O)c2c1c1ccccc1n2CC#N)c1ccccc1 [Example 223, 5-(cyanomethyl)-N-ethyl-4-oxo-N-phenyl-3-(p-tolyl)-4,5-dihydro-3H-pyridazino[4,5-b]indole-1-carboxamide] |
| 30 to 80 | – | CCN(C(=O)c1nn(-c2ccc(C)cc2)c(=O)c2c1c1ccccc1n2CC(=O)O)c1ccccc1 [Example 224, 2-(1-(ethyl(phenyl)carbamoyl)-4-oxo-3-(p-tolyl)-3H-pyridazino[4,5-b]indol-5(4H)-yl)acetic acid] |
| 30 to 80 | – | CCN(C(=O)c1nn(-c2ccc(C)cc2)c(=O)c2c1c1ccccc1n2C(C)C)c1ccccc1 [Example 225, N-ethyl-5-isopropyl-4-oxo-N-phenyl-3-(p-tolyl)-4,5-dihydro-3H-pyridazino[4,5-b]indole-1-carboxamide] |
| 30 to 80 | – | CCN(C(=O)c1nn(-c2ccc(C)cc2)c(=O)c2c1c1ccccc1n2Cc1ccccn1)c1ccccc1 [Example 226, N-ethyl-4-oxo-N-phenyl-5-(pyridin-2-ylmethyl)-3-(p-tolyl)-4,5-dihydro-3H-pyridazino[4,5-b]indole-1-carboxamide] |

The remaining lines, values behind:

| Compound | Emax [%] | EC50 [µM] |
| --- | --- | --- |
| CCN(C(=O)c1nn(-c2ccc(C)cc2)c(=O)c2c1c1c(C)cccc1n2C)c1ccccc1 [Example 196, N-ethyl-5,9-dimethyl-4-oxo-N-phenyl-3-(p-tolyl)-4,5-dihydro-3H-pyridazino[4,5-b]indole-1-carboxamide] | > 80 | > 20 |
| CCN(C(=O)c1nn(Cc2ccccc2)c(=O)c2c1c1ccccc1n2C)c1ccccc1 [Example 197, 3-benzyl-N-ethyl-5-methyl-4-oxo-N-phenyl-4,5-dihydro-3H-pyridazino[4,5-b]indole-1-carboxamide] | 30 to 80 | – |
| CCN(C(=O)c1nn(C2CCN(Cc3ccccc3)CC2)c(=O)c2c1c1ccccc1n2C)c1ccccc1 [Example 198, 3-(1-benzylpiperidin-4-yl)-N-ethyl-5-methyl-4-oxo-N-phenyl-4,5-dihydro-3H-pyridazino[4,5-b]indole-1-carboxamide] | 30 to 80 | – |
| CCN(C(=O)c1nn(C2CCN(C)CC2)c(=O)c2c1c1ccccc1n2C)c1ccccc1 [Example 199, N-ethyl-5-methyl-3-(1-methylpiperidin-4-yl)-4-oxo-N-phenyl-4,5-dihydro-3H-pyridazino[4,5-b]indole-1-carboxamide] | 10 to 30 | > 20 |
| CCN(C(=O)c1nn(C2CCN(S(=O)(=O)c3ccc4c(c3)OC(F)(F)O4)CC2)c(=O)c2c1c1ccccc1n2C)c1ccccc1 [Example 200, 3-(1-((2,2-difluorobenzo[d][1, 3]dioxol-5-yl)sulfonyl)piperidin-4-yl)-N-ethyl-5-methyl-4-oxo-N-phenyl-4,5-dihydro-3H-pyridazino[4,5-b]indole-1-carboxamide] | 30 to 80 | < 10 |
| CCN(C(=O)c1nn(C(C)C)c(=O)c2c1c1ccccc1n2C)c1cccc(Cl)c1 [Example 201, N-(3-chlorophenyl)-N-ethyl-3-isopropyl-5-methyl-4-oxo-4,5-dihydro-3H-pyridazino[4,5-b]indole-1-carboxamide] | 30 to 80 | – |
| CCN(C(=O)Cn1nc(C(=O)N(CC)c2cccc(Cl)c2)c2c3ccccc3n(C)c2c1=O)c1ccc2c(c1)OC(F)(F)O2 [Example 202, N-(3-chlorophenyl)-3-(2-((2,2-difluorobenzo[d][1,3]dioxol-5-yl)(ethyl)amino)-2-oxoethyl)-N-ethyl-5-methyl-4-oxo-4,5-dihydro-3H-pyridazino[4,5-b]indole-1-carboxamide] | 30 to 80 | – |
| CCc1ccc(N(CC)C(=O)Cn2nc(C(=O)N(CC)c3cccc(Cl)c3)c3c4ccccc4n(C)c3c2=O)cc1 [Example 203, N-(3-chlorophenyl)-N-ethyl-3-(2-(ethyl(4-ethylphenyl)amino)-2-oxoethyl)-5-methyl-4-oxo-4,5-dihydro-3H-pyridazino[4,5-b]indole-1-carboxamide] | 30 to 80 | – |
| CCN(C(=O)c1nn(C2CCCCC2)c(=O)c2c1c1ccccc1n2C)c1cccc(Cl)c1 [Example 204, N-(3-chlorophenyl)-3-cyclohexyl-N-ethyl-5-methyl-4-oxo-4,5-dihydro-3H-pyridazino[4,5-b]indole-1-carboxamide] | 30 to 80 | – |
| CCN(C(=O)c1nn(C(C)C)c(=O)c2c1c1ccccc1n2C)c1cc(Cl)ccc1C#N [Example 205, N-(5-chloro-2-cyanophenyl)-N-ethyl-3-isopropyl-5-methyl-4-oxo-4,5-dihydro-3H-pyridazino[4,5-b]indole-1-carboxamide] | 30 to 80 | – |
| CCN(CC)C(=O)c1nn(CC(=O)N(CC)c2ccc3c(c2)OC(F)(F)O3)c(=O)c2c1c1ccccc1n2C [Example 206, 3-(2-((2,2-difluorobenzo[d][1, 3]dioxol-5-yl)(ethyl)amino)-2-oxoethyl)-N,N-diethyl-5-methyl-4-oxo-4,5-dihydro-3H-pyridazino[4,5-b]indole-1-carboxamide] | 30 to 80 | – |
| CCN(C(=O)c1nn(C)c(=O)c2c1c1ccccc1n2C)c1ccccc1 [Example 207, N-ethyl-3,5-dimethyl-4-oxo-N-phenyl-4,5-dihydro-3H-pyridazino[4,5-b]indole-1-carboxamide] | 30 to 80 | < 10 |
| CC(C)n1nc(C(=O)N2CCCCC2)c2c3ccccc3n(C)c2c1=O [Example 208, 3-isopropyl-5-methyl-1-(piperidine-1-carbonyl)-3,5-dihydro-4H-pyridazino[4,5-b]indol-4-one] | 10 to 30 | < 10 |
| CCN(C(=O)c1nn(C)c(=O)c2c1c1ccccc1n2C)c1cccc(Cl)c1 [Example 209, N-(3-chlorophenyl)-N-ethyl-3,5-dimethyl-4-oxo-4,5-dihydro-3H-pyridazino[4,5-b]indole-1-carboxamide] | 30 to 80 | < 10 |
| CCOc1ccc(N(CC)C(=O)c2nn(C(C)C)c(=O)c3c2c2ccccc2n3C)cc1 [Example 210, N-(4-ethoxyphenyl)-N-ethyl-3-isopropyl-5-methyl-4-oxo-4,5-dihydro-3H-pyridazino[4,5-b]indole-1-carboxamide] | 30 to 80 | < 10 |
| CCN(C(=O)c1nn(C)c(=O)c2c1c1ccccc1n2C)c1ccc2c(c1)OC(F)(F)O2 [Example 211, N-(2,2-difluorobenzo[d][1,3]dioxol-5-yl)-N-ethyl-3,5-dimethyl-4-oxo-4,5-dihydro-3H-pyridazino[4,5-b]indole-1-carboxamide] | 30 to 80 | < 10 |
| CC(C)N(C(=O)c1nn(Cc2ccccc2)c(=O)c2c1c1ccccc1n2C)c1ccccc1 [Example 212, 3-benzyl-N-isopropyl-5-methyl-4-oxo-N-phenyl-4,5-dihydro-3H-pyridazino[4,5-b]indole-1-carboxamide] | 30 to 80 | < 10 |
| CCN(CC)C(=O)c1nn(CC(=O)N(CC)c2cccc(Cl)c2)c(=O)c2c1c1ccccc1n2C [Example 213, 3-(2-((3-chlorophenyl)(ethyl)amino)-2-oxoethyl)-N,N-diethyl-5-methyl-4-oxo-4,5-dihydro-3H-pyridazino[4,5-b]indole-1-carboxamide] | 30 to 80 | < 10 |
| CCN(C(=O)c1nn(CC(=O)N2CCCCC2)c(=O)c2c1c1ccccc1n2C)c1ccccc1 [Example 214, N-ethyl-5-methyl-4-oxo-3-(2-oxo-2-(piperidin-1-yl)ethyl)-N-phenyl-4,5-dihydro-3H-pyridazino[4,5-b]indole-1-carboxamide] | 30 to 80 | < 10 |

From patent US10370366B2 (Flatley Discovery Lab, LLC, priority 2013, dated 2019)
